This is an account of results in ChEMBL document CHEMBL3400090, “Benzofused hydroxamic acids: useful fragments for the preparation of histone deacetylase inhibitors. Part 2: 7-fluorobenzothiophenes and benzofurans” (Bioorg Med Chem Lett, 2015).

Assay [1] is described as follows: Antiproliferative activity against human HCT116 cells after 5 days by Alamar Blue assay. The format is functional, cell-based. The following applies: HCT-116, 120 h.
Assay [2] deals with T1, Histone deacetylase (Rattus norvegicus) (UniProt Q6P6W3+Q99P99+Q99P96+Q4QQW4+Q99P97+Q5RJZ2+B1WBY8). As to conditions: at 0.01 µM.
Description: Inhibition of isolated rat liver HDAC using substrate containing acetylated lysine side chain assessed as release of fluorophore at 0.01 uM by Fluor de Lys assay
For assay [3], the target named is T1, Histone deacetylase (Rattus norvegicus). As to conditions: at 0.1 µM.
Description: Inhibition of isolated rat liver HDAC using substrate containing acetylated lysine side chain assessed as release of fluorophore at 0.1 uM by Fluor de Lys assay

Structures are written as SMILES.

For the compound `O=C(NCc1ccc2cc(C(=O)NO)sc2c1F)c1ccccc1`, half-maximal inhibition in assay [1] (IC50) was put at 980 nM. Besides, the inhibition (as a rule, the share of the control response that was lost under treatment) in assay [2] was 24%; in assay [3] it was 64%.

Take `O=C(NCc1ccc2cc(C(=O)NO)sc2c1F)c1ccco1`: half-maximal inhibition in assay [1] (IC50) required 90 nM. The figures for the inhibition in assay [2] and in assay [3] were 39% and 78%, respectively.

In the case of `CN(C)c1ccc(CC(=O)Nc2ccc3oc(C(=O)NO)cc3c2)cc1`, the inhibition in assay [2] was less than 20%; in assay [3], 34%.

For the compound `Cc1ncoc1C(=O)NCc1ccc2cc(C(=O)NO)sc2c1F`, 210 nM corresponded to half-maximal inhibition in assay [1] (IC50). Besides, the inhibition in assay [2] stood at 20%; in assay [3], 61%.

`COc1ccc(C(=O)NCc2ccc3cc(C(=O)NO)sc3c2F)cc1`: in assay [1], it took 50 nM to reach half-maximal inhibition (IC50). For the same compound, the figures for the inhibition in assay [2] and in assay [3] were 39% and 78%, respectively.

As for `O=C(NCc1ccc2oc(C(=O)NO)cc2c1)c1ccco1`, in assay [1], the IC50 (commonly the concentration that inhibits the measured activity by half) was determined as 860 nM. Also, the inhibition in assay [2] was less than 20%; in assay [3], 45%.

Consider `CN(C)c1ccc(C(=O)NCc2ccc3cc(C(=O)NO)sc3c2F)cc1`, for which half-maximal inhibition in assay [1] (IC50) required 60 nM. The inhibition in assay [2] was less than 20%; in assay [3] it was 61%.

Compound `COc1ccccc1C(=O)NCc1ccc2cc(C(=O)NO)sc2c1F` registered an IC50 in assay [1] of 1200 nM. In addition, the inhibition in assay [2] is less than 20%; in assay [3], 56%.

Regarding `O=C(Cc1ccccc1)Nc1ccc2oc(C(=O)NO)cc2c1`, the IC50 in assay [1] came to 1700 nM. For the same compound, the inhibition in assay [2] was less than 20%; in assay [3] it was 41%.

On to `COCc1ccc(C(=O)NCc2ccc3cc(C(=O)NO)sc3c2F)o1`, for which 310 nM corresponded to half-maximal inhibition in assay [1] (IC50). Also, the inhibition was found to be 23% in assay [2] and 67% in assay [3].

Regarding `O=C(NCc1ccc2cc(C(=O)NO)oc2c1)c1ccco1`, the inhibition in assay [2] is less than 20%; in assay [3], 27%.

Take `COc1ccc(CC(=O)Nc2ccc3oc(C(=O)NO)cc3c2)cc1`: in assay [1], the midpoint of inhibition, the IC50, lay at 2700 nM. Also, the values for the inhibition in assay [2] and in assay [3] were less than 20% and 42%, respectively.

Turning to `Cc1ccc(C(=O)NCc2ccc3cc(C(=O)NO)sc3c2F)s1`, half-maximal inhibition in assay [1] (IC50) required 120 nM. Besides, the inhibition in assay [2] is 41%; in assay [3] it was 80%.

`Cc1cc(C(=O)NCc2ccc3cc(C(=O)NO)sc3c2F)oc1C` came in with an IC50 in assay [1] of 470 nM. Besides, the inhibition in assay [2] worked out at 21%; in assay [3], 59%.

Consider `O=C(NCc1ccc2cc(C(=O)NO)sc2c1F)c1ccc[nH]1`, for which, in assay [1], the IC50 came out at 300 nM. Moreover, the inhibition turned out to be 45% in assay [2] and 76% in assay [3].

For `COc1cccc(CC(=O)Nc2ccc3oc(C(=O)NO)cc3c2)c1`, the inhibition in assay [2] was less than 20%; in assay [3], 32%.

Regarding `CN(C)CCCC(=O)Nc1ccc2oc(C(=O)NO)cc2c1`, the inhibition was less than 20% in assay [2] and 26% in assay [3].

Compound `O=C(NCc1ccc2oc(C(=O)NO)cc2c1)c1ccccc1` registered an IC50 in assay [1] of 690 nM. Further, the values for the inhibition in assay [2] and in assay [3] were less than 20% and 49%, respectively.

On to `O=C(NO)c1cc2ccc(CN(CCO)Cc3ccccc3)c(F)c2s1`, for which inhibition in assay [1] was half-maximal at 800 nM (IC50). Also, the inhibition in assay [2] was less than 20%; in assay [3], 48%.

In assay [1], `O=C(NO)c1cc2ccc(CN3CCc4ccccc4C3)c(F)c2s1` yielded an IC50 of 3000 nM. Besides, the inhibition is less than 20% in assay [2] and 45% in assay [3].
